Biological target: Cdk9/cyclinT1 (Homo sapiens (Human), UniProt P50750)
Assay: Cdk9/CyclinT1 IMAP Protocol (fluorescence polarization kinase assay)
Format: biochemical
Conditions: Table 2; generated using one of the two Cdk9/cyclinT1 assays (IMAP or Alpha Screen), not specified which; unit inferred
Protocol: Cdk9/CyclinT1 IMAP Protocol
The biological activity of the compounds of the invention can be determined using the assay described below.
Cdk9/cyclinT1 is purchased from Millipore, cat #14-685. The final total protein concentration in the assay 4 nM. […] The final concentration of peptide substrate is 100 nM. The ATP substrate (Adenosine-5′-triphosphate) is purchased from Roche Diagnostics, cat#1140965. The final concentration of ATP substrate is 6 uM. IMAP (Immobilized Metal Assay for Phosphochemicals) Progressive Binding reagent is purchased from Molecular Devices, cat#R8139. Fluorescence polarization (FP) is used for detection. The 5TAMRA-cdk7tide peptide is phosphorylated by Cdk9/cyclinT1 kinase using the ATP substrate. The Phospho-5TAMRA-cdk7tide peptide substrate is bound to the IMAP Progressive Binding Reagent. The binding of the IMAP Progressive Binding Reagent changes the fluorescence polarization of the 5TAMRA-cdk7tide peptide which is measured at an excitation of 531 nm and FP emission of 595 nm. Assays are carried out in 100 mM Tris, pH=7.2, mM MgCl2, 0.05% NaN3, 0.01% Tween-20, 1 mM dithiothreitol and 2.5% dimethyl sulfoxide. IMAP Progressive Binding Reagent is diluted 1:800 in 100% 1× Solution A from Molecular Devices, cat#R7285.
General protocol is as follows: To 10 ul of cdk9/cyclinT1, 0.5 ul of test compound in dimethyl sulfoxide is added. 5TAMRA-cdk7tide and ATP are mixed. 10 ul of the 5TAMRA-cdk7tide/ATP mix is added to start the reaction. The reaction is allowed to proceed for 4.5 hrs. 60 uL of IMAP Progressive Binding Reagent is added. After >1 hr of incubation, plates are read on the Envision 2101 from Perkin-Elmer. The assay is run in a 384-well format using black Corning plates, cat#3573.

Cdk9/cyclinT1, sequence (P50750 whole entry): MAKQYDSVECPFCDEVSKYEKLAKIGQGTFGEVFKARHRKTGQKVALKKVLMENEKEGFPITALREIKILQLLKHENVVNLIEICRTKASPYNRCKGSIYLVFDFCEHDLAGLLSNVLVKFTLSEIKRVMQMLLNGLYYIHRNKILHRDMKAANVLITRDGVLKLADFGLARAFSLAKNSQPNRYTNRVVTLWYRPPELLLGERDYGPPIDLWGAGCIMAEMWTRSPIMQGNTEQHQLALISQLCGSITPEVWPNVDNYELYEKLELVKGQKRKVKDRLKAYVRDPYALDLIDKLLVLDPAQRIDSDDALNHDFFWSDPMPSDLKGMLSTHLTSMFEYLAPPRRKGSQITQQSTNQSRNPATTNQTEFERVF
Cdk9/cyclinT1, sequence (O60563 whole entry partner): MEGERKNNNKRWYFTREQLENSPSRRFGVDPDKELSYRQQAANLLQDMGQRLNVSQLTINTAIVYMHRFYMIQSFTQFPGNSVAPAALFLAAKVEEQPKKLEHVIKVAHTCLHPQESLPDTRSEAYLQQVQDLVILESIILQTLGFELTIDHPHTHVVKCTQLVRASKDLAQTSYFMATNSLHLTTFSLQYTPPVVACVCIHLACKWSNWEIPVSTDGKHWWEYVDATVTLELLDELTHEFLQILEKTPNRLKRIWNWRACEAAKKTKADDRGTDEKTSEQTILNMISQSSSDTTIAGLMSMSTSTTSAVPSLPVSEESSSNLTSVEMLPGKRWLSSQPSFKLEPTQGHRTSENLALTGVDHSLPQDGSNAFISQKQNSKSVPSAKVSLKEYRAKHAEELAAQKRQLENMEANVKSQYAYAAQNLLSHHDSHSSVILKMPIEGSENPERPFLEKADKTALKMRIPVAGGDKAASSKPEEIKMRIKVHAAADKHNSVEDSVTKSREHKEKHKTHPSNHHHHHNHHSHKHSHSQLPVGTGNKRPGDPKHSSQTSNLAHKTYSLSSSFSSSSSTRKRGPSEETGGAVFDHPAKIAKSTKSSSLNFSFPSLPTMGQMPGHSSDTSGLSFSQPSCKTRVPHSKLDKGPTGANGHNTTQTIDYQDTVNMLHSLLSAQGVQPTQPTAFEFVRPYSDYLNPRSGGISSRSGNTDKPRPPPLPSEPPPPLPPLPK

Compound	IC50
Fc1cccc(CNc2cccc(-c3cc(N[C@H]4CC[C@H](N5CCCCC5)CC4)ncc3Cl)n2)c1 [Compound 115]	7.95 nM
Fc1cccc(CNc2cccc(-c3cc(N[C@H]4CC[C@H](N5CCOCC5)CC4)ncc3Cl)n2)c1 [Compound 116]	7.95 nM
NCCNc1cccc(-c2cc(N[C@H]3CC[C@H](O)CC3)ncc2Cl)n1 [Compound 117]	124 nM
NCCCNc1cccc(-c2cc(N[C@H]3CC[C@H](O)CC3)ncc2Cl)n1 [Compound 118]	139 nM
O[C@H]1CC[C@H](Nc2cc(-c3cccc(NCC4CCNCC4)n3)c(Cl)cn2)CC1 [Compound 119]	155 nM
O[C@H]1CC[C@H](Nc2cc(-c3cccc(NCc4cccnc4)n3)c(Cl)cn2)CC1 [Compound 120]	45.6 nM
O[C@H]1CC[C@H](Nc2cc(-c3cccc(NC[C@H]4CCCNC4)n3)c(Cl)cn2)CC1 [Compound 121]	10500 nM
O[C@H]1CC[C@H](Nc2cc(-c3cccc(NC[C@@H]4CCCNC4)n3)c(Cl)cn2)CC1 [Compound 123]	42.8 nM
CC(=O)NCCNc1cccc(-c2cc(N[C@H]3CC[C@H](O)CC3)ncc2Cl)n1 [Compound 124]	116 nM
O[C@H]1CC[C@H](Nc2cc(-c3cccc(NCC4CCOCC4)n3)c(Cl)cn2)CC1 [Compound 126]	33.3 nM
O[C@H]1CC[C@H](Nc2cc(-c3cccc(NCC4CCCOC4)n3)c(Cl)cn2)CC1 (stereo partly drawn) [Compound 128]	33.4 nM
O[C@H]1CC[C@H](Nc2cc(-c3cccc(NC4CCOCC4)n3)c(Cl)cn2)CC1 [Compound 129]	390 nM
O[C@H]1CC[C@H](Nc2cc(-c3cccc(N4CCOCC4)n3)c(Cl)cn2)CC1 [Compound 131]	470 nM
O[C@H]1CC[C@H](Nc2cc(-c3cccc(NCC4CCCCC4)n3)c(Cl)cn2)CC1 [Compound 132]	14.4 nM
O[C@H]1CC[C@H](Nc2cc(-c3cccc(NCc4cc(F)cc(F)c4)n3)c(Cl)cn2)CC1 [Compound 133]	7.95 nM
O[C@H]1CC[C@H](Nc2cc(-c3cccc(NCc4ccc(F)cc4)n3)c(Cl)cn2)CC1 [Compound 134]	10.5 nM
O[C@H]1CC[C@H](Nc2cc(-c3cccc(NCC4COCCO4)n3)c(Cl)cn2)CC1 (stereo partly drawn) [Compound 135]	142 nM
NC(=O)c1ccc(-c2cc(N[C@H]3CC[C@H](N)CC3)ncc2Cl)nc1NCc1cccc(F)c1 [Compound 138]	522 nM
N[C@H]1CC[C@@H](Nc2cc(-c3cccc(NCc4cccc(F)c4)n3)c(Cl)cn2)CC1 [Compound 139]	30.1 nM
Fc1cccc(CNc2cccc(-c3cc(NC4CCCC4)ncc3Cl)n2)c1 [Compound 140]	12.6 nM
Fc1cccc(CNc2cccc(-c3cc(NC4CCCCC4)ncc3Cl)n2)c1 [Compound 141]	205 nM
Fc1cccc(CNc2cccc(-c3cc(NC4CCOCC4)ncc3Cl)n2)c1 [Compound 142]	25.6 nM

Compound	IC50
Fc1cccc(CNc2cccc(-c3cc(NCC4CCOCC4)ncc3Cl)n2)c1 [Compound 143]	22.7 nM
NCCCNc1cc(-c2cccc(NCc3cccc(F)c3)n2)c(Cl)cn1 [Compound 144]	15.8 nM
OCCCNc1cc(-c2cccc(NCc3cccc(F)c3)n2)c(Cl)cn1 [Compound 146]	7.95 nM
COCCCNc1cc(-c2cccc(NCc3cccc(F)c3)n2)c(Cl)cn1 [Compound 147]	19.4 nM
Fc1cccc(CNc2cccc(-c3cc(N[C@@H]4CCCOC4)ncc3Cl)n2)c1 [Compound 148]	15600 nM
Fc1cccc(CNc2cccc(-c3cc(NC4CCC(F)(F)CC4)ncc3Cl)n2)c1 [Compound 149]	516 nM
Fc1cccc(CNc2cccc(-c3cc(N[C@H]4CCCOC4)ncc3Cl)n2)c1 [Compound 150]	6510 nM
N[C@H]1CCCC[C@H]1Nc1cc(-c2cccc(NCc3cccc(F)c3)n2)c(Cl)cn1 [Compound 153]	1550 nM
CCOC(=O)c1coc(N[C@H]2CC[C@H](Nc3cc(-c4cccc(NCc5cccc(F)c5)n4)c(Cl)cn3)CC2)n1 [Compound 155, Ethyl 2-(trans-4-(5′-chloro-6-(3-fluorobenzylamino)-2,4′-bipyridin-2′-yl-amino)cyclohexylamino)oxazole-4-carboxylate]	23 nM
COCCN[C@H]1CC[C@H](Nc2cc(-c3cccc(NCc4cccc(F)c4)n3)c(Cl)cn2)CC1 [Compound 157]	7.9 nM
CN1CCN([C@H]2CC[C@H](Nc3cc(-c4cccc(NCc5cccc(F)c5)n4)c(Cl)cn3)CC2)CC1 [Compound 158]	11 nM
NCCNc1cc(-c2cccc(NCc3cccc(F)c3)n2)c(Cl)cn1 [Compound 159]	1380 nM
OCCNc1cc(-c2cccc(NCc3cccc(F)c3)n2)c(Cl)cn1 [Compound 160]	19 nM
CN(C)CCCCNc1cc(-c2cccc(NCc3cccc(F)c3)n2)c(Cl)cn1 [Compound 161]	26 nM
Fc1cccc(CNc2cccc(-c3cc(NCC4CCNCC4)ncc3Cl)n2)c1 [Compound 162]	14 nM
CN1CCC(CNc2cc(-c3cccc(NCc4cccc(F)c4)n3)c(Cl)cn2)CC1 [Compound 163]	13 nM
Fc1cccc(CNc2cccc(-c3cc(NC[C@H]4CCCNC4)ncc3Cl)n2)c1 [Compound 164]	39 nM
Fc1cccc(CNc2cccc(-c3cc(NCC[C@H]4CCCNC4)ncc3Cl)n2)c1 [Compound 165]	7.9 nM
Fc1cccc(CNc2cccc(-c3cc(NC[C@@H]4CCCNC4)ncc3Cl)n2)c1 [Compound 166]	27 nM
Fc1cccc(CNc2cccc(-c3cc(NCC[C@@H]4CCCNC4)ncc3Cl)n2)c1 [Compound 167]	18 nM
Fc1cccc(CNc2cccc(-c3cc(NCCN4CCNCC4)ncc3Cl)n2)c1 [Compound 168]	37 nM
N[C@H]1CC[C@H](CNc2cc(-c3cccc(NCc4cccc(F)c4)n3)c(Cl)cn2)CC1 [Compound 169]	9 nM

Compound	IC50
CN1CCN(CCNc2cc(-c3cccc(NCc4cccc(F)c4)n3)c(Cl)cn2)CC1 [Compound 170]	44 nM
Fc1cccc(CNc2cccc(-c3cc(NCCN4CCOCC4)ncc3Cl)n2)c1 [Compound 171]	218 nM
CC(C)Nc1cc(-c2cccc(NCc3cccc(F)c3)n2)c(Cl)cn1 [Compound 172]	15 nM
CCCCNc1cc(-c2cccc(NCc3cccc(F)c3)n2)c(Cl)cn1 [Compound 173]	62 nM
Fc1cccc(CNc2cccc(-c3cc(NCCC4CCOCC4)ncc3Cl)n2)c1 [Compound 174]	29 nM
Fc1cccc(CNc2cccc(-c3cc(NCCc4cccnc4)ncc3Cl)n2)c1 [Compound 175]	24 nM
CNc1cc(-c2cccc(NCc3cccc(F)c3)n2)c(Cl)cn1 [Compound 178, 5′-chloro-N6-(3-fluorobenzyl)-N2′-methyl-2,4′-bipyridine-2′,6-diamine]	103 nM
Nc1cc(-c2cccc(NCc3cccc(F)c3)n2)c(Cl)cn1 [Compound 179]	544 nM
COc1cnc(N[C@H]2CC[C@H](N)CC2)cc1-c1cccc(NCc2cccc(F)c2)n1 [Compound 180, N2′-(trans-4-aminocyclohexyl)-N6-(3-fluorobenzyl)-5′-methoxy-2,4′-bipyridine-2′,6-diamine]	12.1 nM
OC[C@H]1CC[C@H](Nc2cc(-c3cccc(NCc4cccc(F)c4)n3)c(Cl)cn2)CC1 [Compound 181]	7.94 nM
O[C@H]1CC[C@@H](Nc2cc(-c3cccc(NCc4cccc(F)c4)n3)c(Cl)cn2)CC1 [Compound 182]	21.1 nM
O[C@H]1CC[C@@H](Nc2cc(-c3cccc(NCc4cccc(F)c4)n3)c(Cl)cn2)C1 [Compound 183]	7.94 nM
O[C@@H]1CC[C@H](Nc2cc(-c3cccc(NCc4cccc(F)c4)n3)c(Cl)cn2)C1 [Compound 184]	9.11 nM
OCCCCNc1cc(-c2cccc(NCc3cccc(F)c3)n2)c(Cl)cn1 [Compound 186]	7.94 nM
NCCCCNc1cc(-c2cccc(NCc3cc(F)cc(F)c3)n2)c(Cl)cn1 [Compound 188]	7.94 nM
OCCCNc1cc(-c2cccc(NCc3cc(F)cc(F)c3)n2)c(Cl)cn1 [Compound 189]	7.94 nM
COC[C@H]1CC[C@H](Nc2cc(-c3cccc(NCc4cccc(F)c4)n3)c(Cl)cn2)CC1 [Compound 190]	100 nM
N[C@@H]1CC[C@@H](Nc2cc(-c3cccc(NCc4cccc(F)c4)n3)c(Cl)cn2)C1 [Compound 191, N2′-((1R,3R)-3-aminocyclopentyl)-5′-chloro-N6-(3-fluorobenzyl)-2,4′-bipyridine-2′,6-diamine]	7.94 nM
N[C@H]1CC[C@H](Nc2cc(-c3cccc(NCc4cccc(F)c4)n3)c(Cl)cn2)C1 [Compound 192]	7.94 nM
COCCN[C@H]1CC[C@H](Nc2cc(-c3cccc(NCc4cc(F)cc(F)c4)n3)c(Cl)cn2)CC1 [Compound 193]	7.94 nM
CO[C@H]1CC[C@H](Nc2cc(-c3cccc(NCc4cccc(F)c4)n3)c(Cl)cn2)CC1 [Compound 194]	48.1 nM
NCC(O)CNc1cc(-c2cccc(NCc3cccc(F)c3)n2)c(Cl)cn1 (stereo not drawn) [Compound 195]	35.6 nM

Reference: US8778951B2, “Heteroaryl compounds and their uses” (Novartis AG, priority 2009, dated 2014)
